Measured values reported in patent US20260146264A1, “METHODS FOR REPROGRAMMING AND GENE EDITING CELLS” (Factor Bioscience Inc., priority 2023, published 2026).
“Also recorded” adds a separate entry of the source.

Tests used:
pJet promoter = test: Reactivation of silenced pJet promoter (GFP expression) during iPSC to iMSC differentiation; format: cell-based, human; conditions: 10 μM, 24 hours on day 23 of differentiation, JeT-GFP cells
Source text: • 1. Transfect hiPSCs with a chromatin context-sensitive gene editing endonuclease according to some embodiments of the present disclosure, mRNA and single stranded DNA repair templates encoding GFP sequence under JeT (“pJet”) and Ef1a promoters. • 2. Perform gDNA extraction and AAVS1 surveyor PCR to confirm ssDNA repair template integration at AAVS1 locus • 3. Perform single cell sorting to obtain homogeneous cell line started from a single cell • 4. Using Stemdiff™ Mesenchymal Progenitor kit, differentiate iPS cell lines inserted with pJet and Ef1a GFP sequence in their genomes into iMSCs. • 5. Verify robust iMSC differentiation using surface marker expression at the completion of differentiation.
FIG. 16A and FIG. 16B show the tracking of GFP expression under a pJet promoter during iPSC to iMSC differentiation. […] GFP was expressed from day 18 to 30 but was completely silenced on day 33.

[1] = system: COL7A1_e73 gene-editing protein pair USN1 (US2L/US2R D450A) D450A in FokI domain of right protein (D67A of SEQ 80; mutant FokI domain is SEQ 81) (synthetic construct); test: cell_activity; conditions: T7E1 assay, primary human fibroblasts; nickase pair, 58.7% relative insertion of 300 bp dsDNA donor vs 72.3% for US22
[2] = system: COL7A1_e73 gene-editing protein pair US22 (US2L/US2R, wild-type FokI domains) (synthetic construct); test: cell_activity; conditions: T7E1 assay, primary human fibroblasts; 9.4% in iPSCs (p667)
[3] = system: COL7A1_e73 gene-editing protein pair USN3 (US2L/US2R D467A) D467A in FokI domain of right protein (D84A of SEQ 80; mutant FokI domain is SEQ 83) (synthetic construct); test: cell_activity; conditions: T7E1 assay, primary human fibroblasts; nickase pair
[4] = system: COL7A1_e73 gene-editing protein pair USN2 (US2L/US2R D450N) D450N in FokI domain of right protein (D67N of SEQ 80; mutant FokI domain is SEQ 82) (synthetic construct); test: cell_activity; conditions: T7E1 assay, primary human fibroblasts; 0.4% in iPSCs; nickase pair, 42.9% relative insertion of dsDNA donor in fibroblasts

Procedure for Control iMSCs: The cytotoxicity of small-molecule IDO1 inhibitors was assessed by flow cytometry after a 48 hour incubation with Control iMSCs. Viability is shown relative to PBS controls.

Compound: C[C@@H](NC(=O)c1ccc(F)cc1)c1ccc2c(c1)CCN2C(=O)C1CCOCC1 [IDO1-IN-5]
- cytotoxicity (viability relative to PBS controls) (Control iMSCs): mild cytotoxicity

Compound: NS(=O)(=O)NCCNc1nonc1C(=NO)Nc1ccc(F)c(Br)c1 [Epacadostat]
- cytotoxicity (viability relative to PBS controls) (Control iMSCs): no significant difference relative to PBS

Compound: CC(/C=C/C(=O)NO)=C\[C@@H](C)C(=O)c1ccc(N(C)C)cc1 [Trichostatin A]
- GFP expression post TSA treatment (pJet promoter): temporary increase in GFP expression
- GFP expression post TSA treatment (pJet promoter; listed as TSA): noticeable increase of GFP expression; also recorded: successfully demethylated and reactivated the pJet promoter

Compound: COL7A1 exon 73 target site
- activity [1]: 4.4 % NHEJ/MMEJ
- activity [2]: 61.9 % NHEJ/MMEJ
- activity [3]: 11.1 % NHEJ/MMEJ
- activity [4]: 3.1 % NHEJ/MMEJ
